Measured values published in US9718790B2, “Triazine derivative and pharmaceutical composition having an analgesic activity comprising the same” (SHIONOGI & CO., LTD., priority 2010, dated 2017).

What follows are compounds tested against human P2X3 receptor (Homo sapiens (Human), UniProt P56373) (assay: Evaluation of human P2X3 receptor inhibitory activity (Fluo-3 calcium fluorescence, FDSS 3000, ATP stimulation)). Details: C6BU-1 cells stably expressing human P2X3 receptor.
Assay type: cell-based
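Also: stimulus was 50 nM ATP with fluorescence followed for 3 min, and the response per well was peak post-ATP fluorescence divided by the reading at measurement start.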

Chain of human P2X3 receptor (P56373 whole entry): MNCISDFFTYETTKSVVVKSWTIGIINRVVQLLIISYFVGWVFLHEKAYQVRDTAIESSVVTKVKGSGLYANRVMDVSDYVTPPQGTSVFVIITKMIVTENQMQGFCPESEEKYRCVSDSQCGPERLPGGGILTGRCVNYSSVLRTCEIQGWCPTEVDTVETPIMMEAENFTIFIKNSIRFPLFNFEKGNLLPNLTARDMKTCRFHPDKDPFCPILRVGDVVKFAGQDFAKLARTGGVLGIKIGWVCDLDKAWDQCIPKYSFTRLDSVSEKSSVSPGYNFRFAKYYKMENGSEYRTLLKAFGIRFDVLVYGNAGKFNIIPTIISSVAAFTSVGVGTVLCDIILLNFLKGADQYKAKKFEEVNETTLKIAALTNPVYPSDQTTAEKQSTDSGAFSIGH

In order of falling IC50:
1. CCn1c(=O)[nH]/c(=N\c2ccc(Oc3cccc4[nH]ncc34)c(Cl)c2)n(Cc2ccc(Cl)cc2)c1=O [Compound I-2196]  446 nM
2. COC(=O)[C@@H](C)Cn1c(=O)[nH]/c(=N\c2cnc(Oc3ccccc3)c(Cl)c2)n(Cc2ccc(C)cc2)c1=O [Compound I-1474]  138 nM
3. CCCc1ccc(/N=c2\[nH]c(=O)n(C[C@H](C)C(=O)O)c(=O)n2Cc2ccc(Cl)cc2)cc1 [Compound I-0627]  91 nM
4. CCCc1ccc(/N=c2\[nH]c(=O)n(C[C@H](C)C(=O)OC)c(=O)n2Cc2ccc(Cl)cc2)cc1OC [Compound I-1306]  80 nM
5. C[C@@H](Oc1ccc(/N=c2\[nH]c(=O)n(CCC(=O)O)c(=O)n2Cc2ccc(Cl)cc2)cc1)C(F)(F)F [Compound I-1908]  70 nM
6. Cc1ccc(Cn2c(=O)n(C[C@H](C)C(=O)O)c(=O)[nH]/c2=N\c2ccc(CCC3CC3)cc2)cc1 [Compound I-1214]  70 nM
7. CCOC(=O)[C@@H](C)Cn1c(=O)[nH]/c(=N\c2ccc3oc(CO)cc3c2)n(Cc2ccc(Cl)cc2)c1=O [Compound I-1971]  61 nM
8. Cc1ccc(Cn2c(=O)n(C[C@H](C)C(=O)O)c(=O)[nH]/c2=N\c2ccc(/C=C/C3CC3)cc2)cc1 [Compound I-1200]  45 nM
9. CC(C)Oc1ccc(/N=c2\[nH]c(=O)n(C/C(N)=N/O)c(=O)n2Cc2ccc(Cl)cc2)cc1F [Compound I-0599]  38 nM
10. CC(C)Oc1ccc(/N=c2\[nH]c(=O)n([C@H]3C[C@@H]3C(=O)O)c(=O)n2Cc2ccc(Cl)cc2)cc1F [Compound I-0675]  37 nM
11. CCCCOc1ccc(/N=c2\[nH]c(=O)n(C[C@H](C)C(=O)OC)c(=O)n2Cc2ccc(C)cc2)cc1 [Compound I-0816]  37 nM
12. Cc1ccc(Cn2c(=O)n(C[C@H](C)C(=O)O)c(=O)[nH]/c2=N\c2ccc3nc(C)ccc3c2)cc1 [Compound I-1278]  33 nM
13. CCCc1ccc(/N=c2\[nH]c(=O)n(CCC(=O)OCC)c(=O)n2Cc2ccc(C)cc2)cc1C [Compound I-1215]  27 nM
14. Cc1ccc(Cn2c(=O)n(CCCC(=O)O)c(=O)[nH]/c2=N\c2ccc(Oc3ccnc(C)c3)cc2)cc1 [Compound I-1405]  26 nM
15. NC(=O)Cn1c(=O)[nH]/c(=N\c2ccc(OC3CCC3)cc2)n(Cc2ccc(Cl)cc2)c1=O [Compound I-1946]  25 nM
16. Cc1ccc(Cn2c(=O)n(CCCC(=O)O)c(=O)[nH]/c2=N\c2ccc(Oc3ccc(C)nc3)cc2)cc1 [Compound I-1395]  23 nM
17. CCn1c(=O)[nH]/c(=N\c2ccc(Oc3ccc(C(=O)O)cc3)cc2)n(Cc2ccc(Cl)cc2)c1=O [Compound I-1969]  21 nM
18. COC(=O)[C@@H](C)Cn1c(=O)[nH]/c(=N\c2ccc(Oc3cccnc3C)cc2)n(Cc2ccc(C)cc2)c1=O [Compound I-1208]  21 nM
19. O=c1[nH]/c(=N\c2ccc(Oc3ccnc(CO)c3)cc2)n(Cc2ccc(Cl)cc2)c(=O)n1CCO [Compound I-1986]  16 nM
20. CCn1c(=O)[nH]/c(=N\c2ccc(Oc3cccc4ocnc34)c(Cl)c2)n(Cc2ccc(Cl)cc2)c1=O [Compound I-2195]  14 nM
21. CCn1c(=O)[nH]/c(=N\c2ccc(Oc3cc(C(=O)O)on3)cc2)n(Cc2ccc(Cl)cc2)c1=O [Compound I-1963]  13 nM
22. Cc1[nH]c2ccc(/N=c3\[nH]c(=O)n(C[C@H](O)CO)c(=O)n3Cc3ccc(Cl)cc3)cc2c1C [Compound I-2043]  9 nM
23. Cc1ccc(Cn2c(=O)n(C[C@H](C)C(=O)O)c(=O)[nH]/c2=N\c2ccc(Oc3ccnc(C)c3)cc2)cc1 [Compound I-1269]  8 nM
24. CNC(=O)Cn1c(=O)[nH]/c(=N\c2ccc(Oc3ccnc(C)c3)cc2)n(Cc2ccc(Cl)cc2)c1=O [Compound I-1927]  7 nM
25. CCn1c(=O)[nH]/c(=N\c2ccc(Oc3cc(F)cc(C(=O)O)c3)cc2)n(Cc2ccc(Cl)cc2)c1=O [Compound I-2223]  6 nM
26. O=c1[nH]/c(=N\c2ccc3nc(C4CC4)sc3c2)n(Cc2ccc(Cl)cc2)c(=O)n1CCOC1CCCCO1 (stereo not shown) [Compound I-2024]  5 nM
27. COC(=O)CCn1c(=O)[nH]/c(=N\c2ccc(OC(C)C)c(Cl)c2)n(Cc2ccc(C)cc2)c1=O [Compound I-2023]  4 nM
28. COc1cc(/N=c2\[nH]c(=O)n(CCCOC3CCCCO3)c(=O)n2Cc2ccc(Cl)cc2)ccc1OC(C)C (stereo not shown) [Compound I-2000]  3 nM
29. CCOC(=O)CCCn1c(=O)[nH]/c(=N\c2ccc(Oc3ccc(C)nc3)cc2)n(Cc2ccc(C)cc2)c1=O [Compound I-1369]  3 nM

Same assay, conditions: C6BU-1 cells stably expressing human P2X3 receptor, Fluo-3 fluorescence, FDSS 3000

In order of rising IC50:
1. CCOC(=O)CCCn1c(=O)[nH]/c(=N\c2ccc3nc(CC)sc3c2)n(Cc2ccc(C)cc2)c1=O [Compound I-1629]  4 nM
2. CC[C@@H](C)Oc1ccc(/N=c2\[nH]c(=O)n(CCC(=O)O)c(=O)n2Cc2ccc(C)cc2)cc1Cl [Compound I-1030]  14 nM
3. CCc1cc(/N=c2\[nH]c(=O)n(C[C@H](C)C(=O)O)c(=O)n2Cc2ccc(C)cc2)ccc1OC(C)C [Compound I-0911, (S)-1-(4-methylbenzyl)-6-(3-ethyl-4-isopropoxyphenylimino)-3-(2-hydroxycarbonylpropyl)-1,3,5-triazinane-2,4-dion]  15 nM
4. COC(=O)CC1(Cn2c(=O)[nH]/c(=N\c3ccc(OC(C)C)c(Cl)c3)n(Cc3ccc(Cl)cc3)c2=O)CC1 [Compound I-0977]  15 nM
5. Cc1nc2ccc(/N=c3\[nH]c(=O)n(C)c(=O)n3Cc3ccc(Cl)cc3)cc2s1 [Compound I-1737]  19 nM
6. Cc1ccc(Cn2c(=O)n(C[C@H](C)C(=O)O)c(=O)[nH]/c2=N\c2ccc(OC(C)C)c(O)c2)cc1 [Compound I-1134]  35 nM
7. CC(C)Oc1ccc(/N=c2\[nH]c(=O)n(CC3(C(=O)O)CC3)c(=O)n2Cc2ccc(Cl)cc2)cc1 [Compound I-0988]  93 nM
8. Cc1ccc(Cn2c(=O)n(C[C@H](C)C(=O)O)c(=O)[nH]/c2=N\c2ccc(OCC(C)(C)C)cc2)cc1 [Compound I-1064]  257 nM

Same assay, conditions: human P2X3 receptor, Test Example 1

In order of falling IC50:
1. Cc1ccc(Cn2c(=O)n(C[C@H](C)C(=O)O)c(=O)[nH]/c2=N\c2ccc(CC(C)C)c(Cl)c2)cn1 [Compound I-1485]  235 nM
2. CCn1c(=O)[nH]/c(=N\c2ccc(Oc3ccc(C(=O)O)nc3)cc2)n(Cc2ccc(Cl)cn2)c1=O [Compound I-2278]  136 nM
3. Cc1cc(/N=c2\[nH]c(=O)n(C[C@H](C)C(=O)O)c(=O)n2Cc2ccc(Cl)cc2)ccc1OCC(C)C [Compound I-0835]  78 nM
4. CC[C@@H](Cn1c(=O)[nH]/c(=N\c2ccc(OC(C)C)c(C)c2)n(Cc2ccc(C)cc2)c1=O)C(=O)O [Compound I-0886]  76 nM
5. CCn1c(=O)[nH]/c(=N\c2cccc(Oc3cccc(C#N)n3)c2)n(Cc2ccc(Cl)cc2)c1=O [Compound I-2591]  51 nM
6. Cc1ccc(Cn2c(=O)n(C[C@H](C)C(=O)O)c(=O)[nH]/c2=N\c2ccc(OCC3CC3)cc2)cc1 [Compound I-0838]  33 nM
7. O=c1[nH]/c(=N\c2ccc(Oc3noc(C4CC4)n3)cc2)n(Cc2ccc(Cl)cc2)c(=O)n1CC(CO)CO [Compound I-2595]  27 nM
8. Cc1ccc(Cn2c(=O)n(C[C@H](C)C(=O)O)c(=O)[nH]/c2=N\c2ccc(OCC(C)C)cc2)cc1 [Compound I-0827]  26 nM
9. CCn1c(=O)[nH]/c(=N\c2ccc(Oc3ncccc3C#N)cc2)n(Cc2ccc(Cl)cc2)c1=O [Compound I-2345]  20 nM
10. Cc1nsc(Oc2ccc(/N=c3\[nH]c(=O)n(C[C@H](O)CO)c(=O)n3Cc3ccc(F)cc3)cc2)n1 [Compound I-2607]  20 nM
11. COC(=O)c1cncc(Oc2ccc(/N=c3\[nH]c(=O)n(C)c(=O)n3Cc3ccc(Cl)cc3)cc2)n1 [Compound I-2469]  19 nM
12. CCn1c(=O)[nH]/c(=N\c2ccc(Oc3ncc(C(=O)O)cn3)cc2)n(Cc2ccc(Cl)cc2)c1=O [Compound I-2323]  16 nM
13. CCn1c(=O)[nH]/c(=N\c2ccc(Oc3cccnn3)cc2)n(Cc2ccc(Cl)cc2)c1=O [Compound I-2611]  14 nM
14. CC(C)(C)OC(=O)NCCn1c(=O)[nH]/c(=N\c2ccc(Oc3ccon3)cc2)n(Cc2ccc(Cl)cc2)c1=O [Compound I-2522]  11 nM
15. CC[C@@H](C)Oc1ccc(/N=c2\[nH]c(=O)n(C[C@H](C)C(=O)OC)c(=O)n2Cc2ccc(C)cc2)cc1C [Compound I-0823]  11 nM
16. O=c1[nH]/c(=N\c2ccc(Oc3cccc(F)n3)cc2)n(Cc2ccc(Cl)cc2)c(=O)n1C[C@@H](O)CO [Compound I-2525]  10 nM
17. CCOC(=O)CCCn1c(=O)[nH]/c(=N\c2ccc(OCC)c(Cl)c2)n(Cc2ccc(C)cc2)c1=O [Compound I-0862]  10 nM
18. Cc1ccc(Cn2c(=O)n(CC3(C(=O)O)COC3)c(=O)[nH]/c2=N\c2ccc(CC(C)C)c(Cl)c2)cc1 [Compound I-1496]  9 nM
19. CCn1c(=O)[nH]/c(=N\c2ccc(Oc3cc(C(=O)O)ccn3)cc2)n(Cc2ccc(Cl)cc2)c1=O [Compound I-2250]  8 nM
20. Cn1c(=O)[nH]/c(=N\c2ccc(Oc3ccnc(C(=O)O)c3)c(F)c2)n(Cc2ccc(Cl)cc2)c1=O [Compound I-2461]  7 nM
21. CCc1cc2cc(/N=c3\[nH]c(=O)n(CCCOC4CCCCO4)c(=O)n3Cc3ccc(Cl)cc3)ccc2o1 (stereo not shown) [Compound I-2335]  6 nM
22. COc1ccc(Oc2ccc(/N=c3\[nH]c(=O)n(C[C@H](C)C(=O)O)c(=O)n3Cc3ccc(C)cc3)cc2)cn1 [Compound I-1534]  5 nM
23. O=c1[nH]/c(=N\c2ccc(Oc3ncns3)cc2)n(Cc2ccc(Cl)cc2)c(=O)n1CC(CO)CO [Compound I-2521]  5 nM
24. CCn1c(=O)[nH]/c(=N\c2ccc(Oc3ccc(F)c(C(N)=O)c3)cc2)n(Cc2ccc(Cl)cc2)c1=O [Compound I-2235]  4 nM
25. CCn1c(=O)[nH]/c(=N\c2ccc(Oc3cc(C#N)ccn3)cc2)n(Cc2ccc(Cl)cc2)c1=O [Compound I-2227]  4 nM
26. O=c1[nH]/c(=N\c2ccc(Oc3ccnc(F)c3)cc2)n(Cc2ccc(Cl)cc2)c(=O)n1CC(CO)CO [Compound I-2705]  3 nM
27. COC(=O)CCn1c(=O)[nH]/c(=N\c2ccc(Oc3ccc(C#N)cn3)cc2)n(Cc2ccc(C)cc2)c1=O [Compound I-2636]  2 nM
